Measured values from PMC8931498 (Frontiers in Pharmacology, 2022).
Read-outs that look alike come from different tables or passages of the source.

How the values were obtained:
[1] = Plasma pharmacokinetics over 2 h after oral ibogaine in wild-type, Abcg2-/- and Abcb1a/1b;Abcg2-/- mice; type: in vivo; settings: for Fold increase AUC0-2h: oral 10 mg/kg ibogaine; for Tmax / Cmax / AUC(0-t): mouse, plasma, po, 10 mg/kg; for AUC(0-t): read-out: AUC0-2h
Method: (§1) In each experiment, six to seven mice were used per strain. […] To reduce variation in absorption upon oral administration, mice were fasted for 2–3 h before dosing. […] At either 2 or 8 h after dosing, mice were deeply anesthetized with isoflurane (3%), followed by cardiac puncture to collect blood (at least 600 μL) in Eppendorf tubes using heparin as an anticoagulant. The mice were then sacrificed by cervical dislocation, and tissues including the brain, liver (without gallbladder), kidneys, spleen, small intestine together with the fecal content (SIWC), heart, and subcutaneous inguinal white adipose tissue were collected and weighed. For the 2 h experiment, the gallbladder with content was also (separately) collected in an Eppendorf tube and weighed. Plasma was obtained from blood samples by centrifugation at 9,000 g for 6 min at 4 °C. Tissue homogenates (except gallbladder) were obtained using the Fast Prep-24 5G homogenizer (MP Biomedicals Inc., Santa Ana, CA, United States). Before homogenization, Bovine Serum Albumin (BSA, Fraction V) was dissolved at a concentration of 2% (w/v) in distilled water. Three mL of ice-cold 2% BSA were added to liver and SIWC; 2 ml to kidneys; 1 ml to brain, spleen, and heart; and 2–3 ml to the white adipose tissue (depending on the tissue weight). For the gallbladder, 150 μL of 2% BSA was added; then, the samples were centrifuged (9,000 x g, 4°C, 6 min), and only the supernatant was collected for analysis. Both plasma and tissue samples were kept at −70°C in amber-colored Eppendorf tubes until analysis.
(§2) A volume of 50 µL human plasma sample, a 5-fold diluted mouse plasma sample (10 uL + 40 uL control human plasma), or 100 µL homogenized tissue sample were processed. […] To the 50 uL plasma samples, 20 uL of a working solution containing both internal standards at a concentration of 10 ng/ml in methanol (WIS10) was added. Sample pre-treatment involved protein precipitation with 150 uL of acetonitrile-methanol (1:1, v/v). For the tissue homogenates (100 uL sample aliquots), 40 uL of WIS10 was added, and 300 uL precipitation reagent as sample cleanup. After centrifuging the samples (10 min, 4°C, 15,000 x g), 100 µL of the supernatant was transferred to an amber-colored autosampler vial with insert. Then 100 µL of 4 mM ammonium formate pH 3.5 in water was added, and after vortex mixing, the extracts were injected (5 uL) onto a UPLC system (Acquity UPLC I-Class IVD system, Waters, Milford, MA, United States) equipped with an Acquity UPLC HSS T3 Column (150 × 2.1 mm ID, 1.8 µm). The tray temperature was set to 5 ± 3°C, and the analytical column was kept at 50°C. Gradient elution was applied using 4 mM ammonium formate pH 3.5 in water as eluent A and acetonitrile as eluent B. The flow rate was 500 μL/min, and the total runtime was 6 min. Detection was performed in the positive ion mode on a Quadrupole MS/MS detector with a Turbo Ion Spray Interface (QTRAP5500, Sciex, Framingham, MA, United States). The ionspray voltage was 2250 V, and the spray temperature was 700 °C. Gas settings, potentials, and collision energies were optimized by infusion of the analytes and by flow injection analysis.
(§3) Pharmacokinetic parameters were calculated by non-compartmental methods using the Microsoft Excel menu-driven add-in program PKsolver ([Zhang et al., 2010]). The area under the plasma concentration-time curve (AUC) was calculated with the trapezoidal rule without extrapolating to infinity. The peak plasma concentration (Cmax) and the time to reach Cmax (Tmax) were estimated from the original data. […] GraphPad Prism 9 (GraphPad Software Inc., San Diego, CA, United States) was used to plot the data and to perform statistical analysis. To determine whether the most extreme value in a data set was a significant outlier from the rest, the Grubbs’s (or extreme studentized variate) test was applied (α = 0.05). All data were log-transformed before statistical analysis. […]

[2] = Tissue accumulation 2 h after oral ibogaine in wild-type and Oatp1a/1b-deficient mouse strains; type: in vivo, mice; settings: for fold reduction in liver accumulation: tissue concentration relative to plasma AUC0-2h, oral 10 mg/kg ibogaine
Method: as §1
A volume of 50 µL human plasma sample, a 5-fold diluted mouse plasma sample (10 uL + 40 uL control human plasma), or 100 µL homogenized tissue sample were processed. […] To the 50 uL plasma samples, 20 uL of a working solution containing both internal standards at a concentration of 10 ng/ml in methanol (WIS10) was added. Sample pre-treatment involved protein precipitation with 150 uL of acetonitrile-methanol (1:1, v/v). For the tissue homogenates (100 uL sample aliquots), 40 uL of WIS10 was added, and 300 uL precipitation reagent as sample cleanup. After centrifuging the samples (10 min, 4°C, 15,000 x g), 100 µL of the supernatant was transferred to an amber-colored autosampler vial with insert. […]
Pharmacokinetic parameters were calculated by non-compartmental methods using the Microsoft Excel menu-driven add-in program PKsolver ([Zhang et al., 2010]). The area under the plasma concentration-time curve (AUC) was calculated with the trapezoidal rule without extrapolating to infinity. […]

[3] = Tissue distribution 2 h after oral ibogaine in wild-type, Abcg2-/- and Abcb1a/1b;Abcg2-/- mice; type: in vivo; settings: for fold decrease in total amount (% of dose) in SIWC corrected for plasma AUC over 2 h: small intestine with fecal content, oral 10 mg/kg ibogaine; for Kp at 2 h: mouse, po, 10 mg/kg
Method: as §1, §2, §3

[4] = Plasma pharmacokinetics over 2 h after oral ibogaine in wild-type, Oatp1a/1b-/-, Oatp1a/1b-/-;1B1tg and Oatp1a/1b-/-;1B3tg mice; type: in vivo; settings: for Fold increase AUC0-2h: oral 10 mg/kg ibogaine; for Cmax / Tmax / AUC(0-t): female, mouse, plasma, po, 10 mg/kg; for AUC(0-t): read-out: AUC0-2h
Method: as §1, §2, §3

[5] = Plasma pharmacokinetics over 8 h after oral ibogaine in wild-type, Cyp3a-/- and Cyp3aXAV mice; type: in vivo; settings: female, mouse, 10 mg/kg; for AUC(0-t): read-out: AUC0-8h
Method: as §1, §2, §3

[6] = design: method as in Luz and Mash, 2021; settings: ref Luz and Mash, 2021; cited from earlier work
[7] = design: method as in Mačiulaitis et al., 2008; settings: in 24 h in rats; ref Mačiulaitis et al., 2008; cited from earlier work
human ABCB1 = tested on: human ABCB1; design: method as in Tournier et al. (2010); settings: hABCB1-transfected HEK293 cells, flow cytometric assay; ref Tournier et al. (2010); cited from earlier work
human ABCG2 = tested on: human ABCG2; design: method as in Tournier et al. (2010); settings: hABCG2-transfected HEK293 cells, flow cytometric assay; ref Tournier et al. (2010); cited from earlier work
[8] = Abcb1a/1b;Abcg2-/- mice vs wild-type
[9] = wild-type, inguinal white adipose tissue, read-out: adipose tissue-to-plasma distribution ratio
[10] = Oatp1a/1b-/-;1B1tg mice vs wild-type
[11] = Oatp1a/1b-/-;1B3tg mice vs wild-type

Molecule: CCC1CC2CC3c4[nH]c5ccc(OC6OC(C(=O)O)C(O)C(O)C6O)cc5c4CCN(C2)C13 (centres unmarked) [Noribogaine glucuronide, noribogaine glucuronide]
- Fold increase AUC0-2h [1, 8]: 1.5
- Tmax ([1]; Abcb1a/1b;Abcg2-/-): 2 h
- Fold increase AUC0-2h ([1]; Abcg2-/- mice vs wild-type): 1.1
- Tmax ([1]; Abcg2-/-): 2 h
- Cmax ([1]; female, Abcb1a/1b;Abcg2-/-): 156 ± 31 ng/mL
- AUC(0-t) ([1]; female, Abcb1a/1b;Abcg2-/-): 240 ± 46 ng·h/mL
- Cmax ([1]; female, Abcg2-/-): 122 ± 27 ng/mL
- AUC(0-t) ([1]; female, Abcg2-/-): 184 ± 32 ng·h/mL
- Cmax ([1]; female, wild-type): 125 ± 30 ng/mL
- Tmax ([1]; female, wild-type): 2 h
- AUC(0-t) ([1]; female, wild-type): 164 ± 12 ng·h/mL
- Fold increase AUC0-2h ([1]; wild-type mice (reference)): 1.0
- gallbladder-to-plasma ratio, fold higher than liver-to-plasma ratio ([2]; WT mice, 2 h after oral 10 mg/kg ibogaine): about 10 fold
- fold decrease in liver-to-plasma ratio ([3]; Abcb1a/1b;Abcg2-/- mice compared to WT, 2 h after oral 10 mg/kg ibogaine): 1.7 fold
- fold decrease in total amount (% of dose) in SIWC corrected for plasma AUC over 2 h ([3]; Abcb1a/1b;Abcg2-/- mice compared to WT): 2.1 fold
- gallbladder-to-plasma ratio, fold lower than in WT ([3]; Abcb1a/1b;Abcg2-/- vs WT mice, not statistically significant, 2 h after oral 10 mg/kg ibogaine): more than 2 fold
- fold decrease in total amount (% of dose) in SIWC corrected for plasma AUC over 2 h ([3]; Abcg2-/- mice compared to WT): 1.5 fold
- Kp at 2 h [3, 9]: 0.058
- Fold increase AUC0-2h ([4]; Oatp1a/1b-/- mice vs wild-type): 1.5
- Fold increase AUC0-2h [4, 10]: 1.8
- Fold increase AUC0-2h [4, 11]: 1.4
- Cmax ([4]; Oatp1a/1b-/-): 155 ± 20 ng/mL
- Tmax ([4]; Oatp1a/1b-/-): 2 h
- AUC(0-t) ([4]; Oatp1a/1b-/-): 244 ± 30 ng·h/mL
- Cmax ([4]; Oatp1a/1b-/-;1B1tg): 199 ± 59 ng/mL
- Tmax ([4]; Oatp1a/1b-/-;1B1tg): 1 h
- AUC(0-t) ([4]; Oatp1a/1b-/-;1B1tg): 294 ± 65 ng·h/mL
- Cmax ([4]; Oatp1a/1b-/-;1B3tg): 162 ± 25 ng/mL
- Tmax ([4]; Oatp1a/1b-/-;1B3tg): 1 h
- AUC(0-t) ([4]; Oatp1a/1b-/-;1B3tg): 236 ± 24 ng·h/mL
- Cmax ([4]; wild-type): 125 ± 30 ng/mL
- Tmax ([4]; wild-type): 2 h
- AUC(0-t) ([4]; wild-type): 164 ± 12 ng·h/mL
- Fold increase AUC0-2h ([4]; wild-type mice (reference)): 1.0
- Cmax ([5]; Cyp3a-/-): 114 ± 24 ng/mL
- Tmax ([5]; Cyp3a-/-): 1 h
- AUC(0-t) ([5]; Cyp3a-/-): 422 ± 110 ng·h/mL
- Cmax ([5]; Cyp3aXAV): 123 ± 28 ng/mL
- Tmax ([5]; Cyp3aXAV): 1 h
- AUC(0-t) ([5]; Cyp3aXAV): 536 ± 117 ng·h/mL
- Cmax ([5]; wild-type): 70 ± 13.6 ng/mL
- Tmax ([5]; wild-type): 1 h
- AUC(0-t) ([5]; wild-type): 219 ± 50 ng·h/mL

Molecule: CCC1CC2CC3c4[nH]c5ccc(O)cc5c4CCN(C2)C13 (centres unmarked) [Noribogaine, 12-hydroxyibogamine]
- Fold increase AUC0-2h [1, 8]: 1.2
- Tmax ([1]; Abcb1a/1b;Abcg2-/-): 0.25 h
- Fold increase AUC0-2h ([1]; Abcg2-/- mice vs wild-type): 1.1
- Tmax ([1]; Abcg2-/-): 0.25 h
- Cmax ([1]; female, Abcb1a/1b;Abcg2-/-): 276 ± 98 ng/mL
- AUC(0-t) ([1]; female, Abcb1a/1b;Abcg2-/-): 419 ± 126 ng·h/mL
- Cmax ([1]; female, Abcg2-/-): 233 ± 61 ng/mL
- AUC(0-t) ([1]; female, Abcg2-/-): 381 ± 108 ng·h/mL
- Cmax ([1]; female, wild-type): 208 ± 70 ng/mL
- Tmax ([1]; female, wild-type): 0.5 h
- AUC(0-t) ([1]; female, wild-type): 339 ± 107 ng·h/mL
- Fold increase AUC0-2h ([1]; wild-type mice (reference)): 1.0
- half-life in plasma [6]: 24 to 30 h
- fold reduction in liver accumulation ([2]; Oatp1a/1b-/- mice compared to WT): 1.6 fold
- fold reduction in liver accumulation ([2]; Oatp1a/1b-/-;1B1tg mice compared to WT): 1.8 fold
- fold reduction in liver accumulation ([2]; Oatp1a/1b-/-;1B3tg mice compared to WT): 2.1 fold
- Kp at 2 h ([3]; Abcb1a/1b;Abcg2-/-, brain, read-out: brain-to-plasma ratio): 8.3
- liver-to-plasma ratios, times higher than gallbladder-to-plasma ratios ([3]; WT, Abcg2-/- and Abcb1a/1b;Abcg2-/- mice, 2 h after oral 10 mg/kg ibogaine): at least 3 times
- absolute brain concentrations, fold higher than those of ibogaine ([3]; wild-type mice, both at 2 and 8 h after oral 10 mg/kg ibogaine): ≥ 100 fold
- Kp at 2 h ([3]; wild-type, brain, read-out: brain-to-plasma ratio): 7.2
- Kp at 2 h [3, 9]: 2.8
- Fold increase AUC0-2h ([4]; Oatp1a/1b-/- mice vs wild-type): 1.4
- Fold increase AUC0-2h [4, 10]: 1.7
- Fold increase AUC0-2h [4, 11]: 1.5
- Cmax ([4]; Oatp1a/1b-/-): 290 ± 73 ng/mL
- Tmax ([4]; Oatp1a/1b-/-): 0.5 h
- AUC(0-t) ([4]; Oatp1a/1b-/-): 458 ± 110 ng·h/mL
- Cmax ([4]; Oatp1a/1b-/-;1B1tg): 417 ± 95 ng/mL
- Tmax ([4]; Oatp1a/1b-/-;1B1tg): 0.25 h
- AUC(0-t) ([4]; Oatp1a/1b-/-;1B1tg): 578 ± 86 ng·h/mL
- Cmax ([4]; Oatp1a/1b-/-;1B3tg): 411 ± 107 ng/mL
- Tmax ([4]; Oatp1a/1b-/-;1B3tg): 0.25 h
- AUC(0-t) ([4]; Oatp1a/1b-/-;1B3tg): 519 ± 100 ng·h/mL
- Cmax ([4]; wild-type): 209 ± 70 ng/mL
- Tmax ([4]; wild-type): 0.5 h
- AUC(0-t) ([4]; wild-type): 339 ± 107 ng·h/mL
- Fold increase AUC0-2h ([4]; wild-type mice (reference)): 1.0
- excreted via urine and feces, % of the administered dose [7]: 60–70%
- Cmax ([5]; Cyp3a-/-): 280 ± 75 ng/mL
- Tmax ([5]; Cyp3a-/-): 0.5 h
- AUC(0-t) ([5]; Cyp3a-/-): 1070 ± 320 ng·h/mL
- Cmax ([5]; Cyp3aXAV): 328 ± 75 ng/mL
- Tmax ([5]; Cyp3aXAV): 0.5 h
- AUC(0-t) ([5]; Cyp3aXAV): 1400 ± 320 ng·h/mL
- Cmax ([5]; wild-type): 217 ± 37 ng/mL
- Tmax ([5]; wild-type): 0.5 h
- AUC(0-t) ([5]; wild-type): 655 ± 220 ng·h/mL

Molecule: ibogaine
- inhibition of human ABCB1 (human ABCB1): significantly inhibited in a concentration-dependent manner
- inhibition of human ABCG2 (human ABCG2): significantly inhibited in a concentration-dependent manner
